Assay results from patent US8466089B2, “Pyrazole compounds, process for their production and herbicides containing them” (Ishihara Sangyo Kaisha, Ltd., priority 2008, dated 2013).

Legend:
Assay type in all cases: in vivo
[1] = system: barnyardgrass (Echinochloa crus-galli L.); experiment: Test Example 1, foliar treatment in upland pots; settings: 20th to 22nd day after application, visual, read-out: Growth inhibition rate (%) Barnyardgrass
[2] = system: barnyardgrass (Echinochloa crus-galli L.); experiment: Test Example 2, soil application on the day after sowing; settings: 21st to 22nd day after application, visual, read-out: Growth inhibition rate (%) Barnyardgrass
In short: (§1)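 Upland soil in 1/170,000 ha pots was sown, and the day after sowing, compound formulated as wettable powder or emulsifiable concentrate was diluted in water equivalent to 500 L/ha and sprayed onto the soil. Growth inhibition was scored visually at 21–22 days, 0% (untreated) to 100% (complete kill).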

corn (Zea mays L.) = experiment: as above; settings: 21st to 22nd day after application, visual, read-out: Growth inhibition rate (%) Corn
In short: as §1

[3] = system: crabgrass (Digitaria sanquinalis L.); experiment: as above; settings: 21st to 22nd day after application, visual, read-out: Growth inhibition rate (%) Crabgrass
In short: as §1

[4] = system: green foxtail (Setaria viridis L.); experiment: as above; settings: 21st to 22nd day after application, visual, read-out: Growth inhibition rate (%) Green foxtail
In short: as §1

[5] = system: prickly sida (Sida spinosa L.); experiment: as above; settings: 21st to 22nd day after application, visual, read-out: Growth inhibition rate (%) Prickly sida
In short: as §1

[6] = system: redroot pigweed (Amaranthus retroflexus L.); experiment: as above; settings: 21st to 22nd day after application, visual, read-out: Growth inhibition rate (%) Redroot pigweed
In short: as §1

rice (Oryza sativa L.) = experiment: as above; settings: 21st to 22nd day after application, visual, read-out: Growth inhibition rate (%) Rice
In short: as §1

[7] = system: soybean (Glycine max Merr.); experiment: as above; settings: 21st to 22nd day after application, visual, read-out: Growth inhibition rate (%) Soybean
In short: as §1

[8] = system: velvetleaf (Abutilon theophrasti MEDIC.); experiment: as above; settings: 21st to 22nd day after application, visual, read-out: Growth inhibition rate (%) Velvetleaf
In short: as §1

wheat (Triticum spp.) = experiment: as above; settings: 21st to 22nd day after application, visual, read-out: Growth inhibition rate (%) Wheat
In short: as §1

[9] = system: Japanese bulrush (Scirpus juncoides); experiment: Test Example 3, paddy field pot, application to irrigated water; settings: Schoenoplectiella juncoides, applied at 0.5 leaf stage, 13th to 17th day after application, read-out: Growth inhibition rate (%) Japanese bulrush
In short: (§2)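 Weeds were sown or planted in flooded paddy-soil pots and treated in the water at 0.5-leaf or primary-leaf stage. Rice (Nihonbare), transplanted at two-leaf stage 3 cm deep, was treated on day 4. Diluted wettable powder or emulsifiable concentrate was used, and growth inhibition (0–100%) was scored visually at 13–17 days for weeds and 20–23 days for rice.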

[10] = system: Japanese ribbon waparo (Sagittaria pygmaea); experiment: as above; settings: applied at primary leaf stage, 13th to 17th day after application, read-out: Growth inhibition rate (%) Japanese ribbon waparo
In short: as §2

[11] = system: barnyardgrass (Echinochloa oryzicola vasing.); experiment: as above; settings: applied at 0.5 leaf stage, 13th to 17th day after application, read-out: Growth inhibition rate (%) barnyard grass
In short: as §2

| Structure (SMILES) | inhibition at 7 g/ha [1] [%] | inhibition at 250 g/ha [2] [%] | inhibition at 250 g/ha (corn (Zea mays L.)) [%] | inhibition at 250 g/ha [3] [%] | inhibition at 250 g/ha [4] [%] | inhibition at 250 g/ha [5] [%] | inhibition at 250 g/ha [6] [%] | inhibition at 250 g/ha (rice (Oryza sativa L.)) [%] | inhibition at 250 g/ha [7] [%] | inhibition at 250 g/ha [8] [%] | inhibition at 250 g/ha (wheat (Triticum spp.)) [%] | inhibition at 63 g/ha [9] [%] | inhibition at 63 g/ha [10] [%] | inhibition at 63 g/ha [11] [%] |
| --- | --- | --- | --- | --- | --- | --- | --- | --- | --- | --- | --- | --- | --- | --- |
| COCCOc1c(S(C)(=O)=O)ccc(C(=O)c2cnn(C(C)C)c2O)c1C [Compound No. 8-1, (5-Hydroxy-1-isopropyl-1H-pyrazol-4-yl)(3-(2-methoxyethoxy)-2-methyl-4-(methylsulfonyl)phenyl)ketone] | 60 | 100 | 0 | 100 | 100 | 40 | 100 | 80 | 0 | 100 | 0 | 95 | 95 | 95 |
| CCn1nc(C)c(C(=O)c2ccc(S(C)(=O)=O)c(OCCOC)c2C)c1O [Compound No. 6-1, (1-Ethyl-5-hydroxy-3-methyl-1H-pyrazol-4-yl)(3-(2-methoxyethoxy)-2-methyl-4-(methylsulfonyl)phenyl)ketone] | 10 | 100 | 0 | 100 | 98 | 80 | 100 | 100 | 60 | 80 | 20 | 80 | 60 | 60 |
| COCCOc1c(S(C)(=O)=O)ccc(C(=O)c2c(C)nn(C)c2O)c1C [Compound No. 5-2, (5-Hydroxy-1,3-dimethyl-1H-pyrazol-4-yl)(3-(2-methoxyethoxy)-2-methyl-4-(methylsulfonyl)phenyl)ketone] | 90 | 10 | 0 | 100 | 60 | 0 | 90 | 10 | 20 | 70 | 0 | 70 | 80 | 80 |
| CCc1nn(C)c(O)c1C(=O)c1ccc(S(C)(=O)=O)c(OCCOC)c1C [Compound No. 5-3, (5-Hydroxy-1-methyl-3-ethyl-1H-pyrazol-4-yl)(3-(2-methoxyethoxy)-2-methyl-4-(methylsulfonyl)phenyl)ketone] | 90 | 50 | 20 | 95 | 60 | 20 | 100 | 20 | 0 | 30 | 0 | 50 | 50 | 60 |
